According to patent US20110038931A1, “COMPOSITE PREPARATION” (HANALL BIOPHARMA CO., LTD., priority 2008, published 2011):

Tests used:
[1] = test system: SD rats; assay: Bleeding time measurement in SD rats; assay type: in vivo, Rats (male); settings: 10 mg/kg p.o. once, light, 2 hours after administration
Experimental: (§1) Animal tests supporting the effects of the present invention were carried out as described in Table 8 below.

[2] = test system: ADP-induced platelet aggregation; assay: Measurement of ADP-induced platelet aggregation in SD rats (PRP, aggregometer); assay type: in vivo, Rats (male); settings: single drug 10 mg/kg, light
Experimental: as §1

Row | SMILES | Bleeding time [1] [s] | Platelet aggregation [2] [%]
1 | COC(=O)[C@H](c1ccccc1Cl)N1CCc2sccc2C1 [Clopidogrel, methyl (+)-(S)-α-(o-chlorophenyl)-6,7-dihydrothieno[3,2-c]pyridine-5(4H)-acetate] | 1177 ± 729 | 77.1 ± 20.9
2 | CC(=O)Oc1ccccc1C(=O)O [Aspirin, acetylsalicylic acid] | 930 ± 296 | 83.5 ± 16.7
